# Results reported in US11746116B2, “Antibiotic resistance breakers” (KING'S COLLEGE LONDON, priority 2017, dated 2023).
# Tests used:
# [1] = tested on: VRE12204; assay: MIC, microdilution broth method; type: cell-based, Enterococcus faecium; conditions: ESKAPE panel, Gram-positive; in µg/mL
# [2] = tested on: EMRSA15; assay: MIC, microdilution broth method; type: cell-based, Staphylococcus aureus
# [3] = tested on: EC12923; assay: MIC, microdilution broth method; type: cell-based
# [4] = tested on: extended bacterial panel; assay: MIC against an extended bacterial panel (Table 15); type: cell-based
compound,measurement,setting,value
"Cc1cc(C)nc(N[C@@H]2CCN(c3c(F)cc4c(=O)c(C(=O)O)cn5c4c3OC[C@@H]5C)C2)n1 [KSN-BL7, (S)-10-((R)-3-((4,6-dimethylpyrimidin-2-yl)amino)pyrrolidin-1-yl)-9-fluoro-3-methyl-7-oxo-2,3-dihydro-7H-[1,4]oxazino[2,3,4-ij]quinoline-6-carboxylic acid]","MIC, VRE12204",[1],1
same,"MIC, EMRSA15","[2]; EMRSA15 (Table 16, role of the terminal pyrimidine ring), in µg/mL",0.125-0.25
same,"MIC, EMRSA15","[2]; ESKAPE panel, Gram-positive",0.125-
same,MIC,[2]; Staphylococcus aureus,0.125 µg/mL
same,"MIC, EC12923","[3]; ESKAPE panel, Gram-negative, in µg/mL",1
same,MIC,[3]; Escherichia coli,1 µg/mL
same,MIC,"[4]; Enterococcus faecalis, ATCC29212, Enterococcus faecalis ATCC 29212",0.25 µg/mL
same,MIC,"[4]; Enterococcus faecalis, ATCC51299, Enterococcus faecalis ATCC 51299, VanB",0.125 µg/mL
same,MIC,"[4]; Enterococcus faecalis, ATCC51575, Enterococcus faecalis ATCC 51575, VanB",0.25 µg/mL
same,MIC,"[4]; Enterococcus faecalis, ATCC700802, Enterococcus faecalis ATCC 700802, VanB",0.125 µg/mL
same,MIC,"[4]; Enterococcus faecalis, CCUG47775, Enterococcus faecalis CCUG 47775, Van A",0.5 µg/mL
same,MIC,"[4]; Enterococcus faecium, CCUG59167, Enterococcus faecium TUH44-29, CCUG 59167, Van A",1 µg/mL
same,MIC,"[4]; Enterococcus gallinarum, ATCC 49608 / GALLINARUM, Enterococcus gallinarum ATCC 49608, VanC",0.25 µg/mL
same,MIC,"[4]; Staphylococcus aureus, ATCC10390, Staphylococcus aureus ATCC 10390",≤ 0.0312 µg/mL
same,MIC,"[4]; Staphylococcus aureus, ATCC 13709 / MRSA, Staphylococcus aureus ATCC 13709, MRSA",≤ 0.0312 µg/mL
same,MIC,"[4]; Staphylococcus aureus, ATCC19636, Staphylococcus aureus Smith, ATCC 19636",≤ 0.0312 µg/mL
same,MIC,"[4]; Staphylococcus aureus, ATCC27660, Staphylococcus aureus ATCC 27660",≤ 0.0312 µg/mL
same,MIC,"[4]; Staphylococcus aureus, ATCC29213, Staphylococcus aureus ATCC 29213",≤ 0.0312 µg/mL
same,MIC,"[4]; Staphylococcus aureus, ATCC29213, Staphylococcus aureus ATCC 29213 with 50% human serum",1 µg/mL
same,MIC,"[4]; Staphylococcus aureus, ATCC 33591 / MRSA, Staphylococcus aureus ATCC 33591, MRSA",≤ 0.0312 µg/mL
same,MIC,"[4]; Staphylococcus aureus, ATCC 33592 / MRSA, Staphylococcus aureus ATCC 33592, MRSA",≤ 0.0312 µg/mL
same,MIC,"[4]; Staphylococcus aureus, ATCC33594, Staphylococcus aureus ATCC 33594",≤ 0.0312 µg/mL
same,MIC,"[4]; Staphylococcus aureus, ATCC49230, Staphylococcus aureus ATCC 49230",≤ 0.0312 µg/mL
same,MIC,"[4]; Staphylococcus aureus, ATCC 700699 / MRSA / VISA, Staphylococcus aureus Mu50, ATCC 700699, MRSA/VISA",2 µg/mL
same,MIC,"[4]; Staphylococcus aureus, BAA-1556 / MRSA / USA300, Staphylococcus aureus FPR3757, BAA-1556, USA300 MRSA",0.5 µg/mL
same,MIC,"[4]; Staphylococcus aureus, BAA-1707 / MRSA / USA400, Staphylococcus aureus MW2, BAA-1707, USA400 MRSA",≤ 0.0312 µg/mL
same,MIC,"[4]; Staphylococcus aureus, BAA-1717 / MRSA / USA300, Staphylococcus aureus TCH1516, BAA-1717, USA300 MRSA",≤ 0.0312 µg/mL
same,MIC,"[4]; Staphylococcus aureus, MRSA / NRS 3 / VISA, Staphylococcus aureus NRS3, MRSA/VISA",0.5 µg/mL
same,MIC,"[4]; Staphylococcus aureus, MRSA / NRS 17 / VISA, Staphylococcus aureus NRS17, MRSA/VISA",1 µg/mL
same,MIC,"[4]; Staphylococcus aureus, MRSA / NRS 22 / USA600 / VISA, Staphylococcus aureus NRS22, USA600 MRSA/VISA",4 µg/mL
same,MIC,"[4]; Staphylococcus aureus, MRSA / NRS 56 / VISA, Staphylococcus aureus NRS56, MRSA/VISA",1 µg/mL
same,MIC,"[4]; Staphylococcus aureus, MRSA / NRS 71, Staphylococcus aureus NRS71, MRSA",1 µg/mL
same,MIC,"[4]; Staphylococcus aureus, MRSA / NRS 100, Staphylococcus aureus COL, NRS100, MRSA",≤ 0.0312 µg/mL
same,MIC,"[4]; Staphylococcus aureus, MRSA / NRS 119, Staphylococcus aureus NRS119, MRSA LZD-NS",1 µg/mL
same,MIC,"[4]; Staphylococcus aureus, MRSA / NRS 123 / USA400, Staphylococcus aureus NRS123, USA400 MRSA",≤ 0.0312 µg/mL
same,MIC,"[4]; Staphylococcus aureus, MRSA / NRS 127, Staphylococcus aureus NRS127, MRSA LZD-NS",4 µg/mL
same,MIC,"[4]; Staphylococcus aureus, MRSA / NRS 269, Staphylococcus aureus NRS269, MRSA TGC-NS",2 µg/mL
same,MIC,"[4]; Staphylococcus aureus, MRSA / NRS 271, Staphylococcus aureus E-MRSA 15, NRS271, MRSA LZD-NS",0.5 µg/mL
same,MIC,"[4]; Staphylococcus aureus, MRSA / NRS 382 / USA100, Staphylococcus aureus NRS382, USA100 MRSA",0.5 µg/mL
same,MIC,"[4]; Staphylococcus aureus, MRSA / NRS 383 / USA200, Staphylococcus aureus NRS383, USA200 MRSA TIG-NS",1 µg/mL
same,MIC,"[4]; Staphylococcus aureus, MRSA / NRS 384 / USA300, Staphylococcus aureus NRS384, USA300 MRSA",≤ 0.0312 µg/mL
same,MIC,"[4]; Staphylococcus aureus, MRSA / NRS 385 / USA500, Staphylococcus aureus NRS385, USA500 MRSA",0.5 µg/mL
same,MIC,"[4]; Staphylococcus aureus, MRSA / NRS 386 / USA700, Staphylococcus aureus NRS386, USA700 MRSA",0.25 µg/mL
same,MIC,"[4]; Staphylococcus aureus, MRSA / NRS 387 / USA800, Staphylococcus aureus NRS387, USA800 MRSA",≤ 0.0312 µg/mL
same,MIC,"[4]; Staphylococcus aureus, MRSA / NRS 402 / VISA, Staphylococcus aureus NRS402, MRSA/VISA DAP-NS",1 µg/mL
same,MIC,"[4]; Staphylococcus aureus, MRSA / NRS 483, Staphylococcus aureus NRS483, USA1000 MRSA",≤ 0.0312 µg/mL
same,MIC,"[4]; Staphylococcus aureus, MRSA / NRS 484, Staphylococcus aureus NRS484, USA1100 MRSA",≤ 0.0312 µg/mL
same,MIC,"[4]; Staphylococcus aureus, MRSA / VISA, Staphylococcus aureus FDA-CDC AR-BANK# 0215",16 µg/mL
same,MIC,"[4]; Staphylococcus aureus, MRSA / VISA, Staphylococcus aureus FDA-CDC AR-BANK# 0216",0.5 µg/mL
same,MIC,"[4]; Staphylococcus aureus, MRSA / VISA, Staphylococcus aureus FDA-CDC AR-BANK# 0217",1 µg/mL
same,MIC,"[4]; Staphylococcus aureus, MRSA / VISA, Staphylococcus aureus FDA-CDC AR-BANK# 0218, MRSA/VISA Mupirocin-R",1 µg/mL
same,MIC,"[4]; Staphylococcus aureus, MRSA / VISA, Staphylococcus aureus FDA-CDC AR-BANK# 0219",4 µg/mL
same,MIC,"[4]; Staphylococcus aureus, MRSA / VISA, Staphylococcus aureus FDA-CDC AR-BANK# 0220",1 µg/mL
same,MIC,"[4]; Staphylococcus aureus, MRSA / VISA, Staphylococcus aureus FDA-CDC AR-BANK# 0221",0.5 µg/mL
same,MIC,"[4]; Staphylococcus aureus, MRSA / VISA, Staphylococcus aureus FDA-CDC AR-BANK# 0223",1 µg/mL
same,MIC,"[4]; Staphylococcus aureus, MRSA / VISA, Staphylococcus aureus FDA-CDC AR-BANK# 0224, MRSA/VISA Mupirocin-R",1 µg/mL
same,MIC,"[4]; Staphylococcus aureus, MRSA / VISA, Staphylococcus aureus FDA-CDC AR-BANK# 0225",1 µg/mL
same,MIC,"[4]; Staphylococcus aureus, MRSA / VISA, Staphylococcus aureus FDA-CDC AR-BANK# 0226",≤ 0.0312 µg/mL
same,MIC,"[4]; Staphylococcus aureus, MRSA / VISA, Staphylococcus aureus FDA-CDC AR-BANK# 0227",1 µg/mL
same,MIC,"[4]; Staphylococcus aureus, MRSA / VISA, Staphylococcus aureus FDA-CDC AR-BANK# 0228, MRSA/VISA Mupirocin-R",8 µg/mL
same,MIC,"[4]; Staphylococcus aureus, MRSA / VRSA, Staphylococcus aureus VRS1, VanA MRSA/VRSA",1 µg/mL
same,MIC,"[4]; Staphylococcus aureus, MRSA / VRSA, Staphylococcus aureus VRS2, VanA MRSA/VRSA",0.5 µg/mL
same,MIC,"[4]; Staphylococcus aureus, MRSA / VRSA, Staphylococcus aureus VRS3a, VanA MRSA/VRSA",0.5 µg/mL
same,MIC,"[4]; Staphylococcus aureus, MRSA / VRSA, Staphylococcus aureus VRS11b, VanA MRSA/VRSA",2 µg/mL
same,MIC,"[4]; Staphylococcus aureus, MRSA, Staphylococcus aureus ECL 2963621, MRSA DAP-NS",0.25 µg/mL
same,MIC,"[4]; Staphylococcus aureus, MRSA, Staphylococcus aureus ECL 2963666, MRSA DAP-NS",1 µg/mL
same,MIC,"[4]; Staphylococcus aureus, MRSA, Staphylococcus aureus ECL 2963667, MRSA DAP-NS",1 µg/mL
same,MIC,"[4]; Staphylococcus aureus, MRSA, Staphylococcus aureus ECL 2963743, MRSA DAP-NS",0.5 µg/mL
same,MIC,"[4]; Staphylococcus aureus, MRSA, Staphylococcus aureus R136",0.5 µg/mL
same,MIC,"[4]; Staphylococcus aureus, NRS 12 / VISA, Staphylococcus aureus NRS12, VISA",0.0625 µg/mL
same,MIC,"[4]; Staphylococcus aureus, NRS72, Staphylococcus aureus Sanger-476, NRS72",≤ 0.0312 µg/mL
same,MIC,"[4]; Staphylococcus aureus, NRS157, Staphylococcus aureus NRS157",≤ 0.0312 µg/mL
same,MIC,"[4]; Staphylococcus aureus, Staphylococcus aureus 6538P",≤ 0.0312 µg/mL
same,MIC,"[4]; Staphylococcus aureus, VISA, Staphylococcus aureus FDA-CDC AR-BANK# 0222",≤ 0.0312 µg/mL
same,MIC,"[4]; Staphylococcus aureus, VRSA, Staphylococcus aureus ECL 2963646",0.5 µg/mL
same,MIC,"[4]; Staphylococcus epidermidis, ATCC12228, Staphylococcus epidermidis ATCC 12228",≤ 0.0312 µg/mL
same,MIC,"[4]; Staphylococcus epidermidis, ATCC51625, Staphylococcus epidermidis CCF 15990, ATCC 51625",≤ 0.0312 µg/mL
same,MIC,"[4]; Staphylococcus epidermidis, NRS7, Staphylococcus epidermidis NRS7, VISE",0.5 µg/mL
same,MIC,"[4]; Staphylococcus epidermidis, NRS8, Staphylococcus epidermidis NRS8, VISE",1 µg/mL
same,MIC,"[4]; Staphylococcus epidermidis, NRS60, Staphylococcus epidermidis NRS60, VISE",0.0625 µg/mL
same,MIC,"[4]; Staphylococcus epidermidis, NRS101, Staphylococcus epidermidis NRS101",≤ 0.0312 µg/mL
same,MIC,"[4]; Staphylococcus haemolyticus, ATCC29970, Staphylococcus haemolyticus ATCC 29970",≤ 0.0312 µg/mL
same,MIC,"[4]; Staphylococcus intermedius, ATCC29663, Staphylococcus intermedius ATCC 29663",≤ 0.0312 µg/mL
same,MIC,"[4]; Staphylococcus saprophyticus, ATCC15305, Staphylococcus saprophyticus ATCC 15305",0.0625 µg/mL
same,MIC,[4]; Strepotococcus pyogenes ATCC 14289,0.125 µg/mL
same,MIC,[4]; Strepotococcus pyogenes ATCC 19615,0.125 µg/mL
same,MIC,"[4]; Streptococcus agalactiae, ATCC12386, Streptococcus agalactiae ATCC 12386",0.25 µg/mL
same,MIC,"[4]; Streptococcus mutans, ATCC25175, Streptococcus mutans ATCC 25175",≤ 0.0312 µg/mL
same,MIC,"[4]; Streptococcus oralis, ATCC9811, Streptococcus oralis ATCC 9811",0.25 µg/mL
same,MIC,"[4]; Streptococcus pneumoniae, ATCC6301, Streptococcus pneumoniae ATCC 6301",0.125 µg/mL
same,MIC,"[4]; Streptococcus pneumoniae, ATCC49619, Streptococcus pneumoniae ATCC 49619",0.125 µg/mL
same,MIC,"[4]; Streptococcus pneumoniae, ATCC51916, Streptococcus pneumoniae Tenessee 23F, ATCC 51916, MDR",0.125 µg/mL
same,MIC,"[4]; Streptococcus pneumoniae, ATCC700669, Streptococcus pneumoniae SP264, ATCC 700669, ST 23F",0.0625 µg/mL
same,MIC,"[4]; Streptococcus pneumoniae, ATCC700673, Streptococcus pneumoniae Hungary 19A, ATCC 700673, MDR",0.0625 µg/mL
same,MIC,"[4]; Streptococcus pneumoniae, ATCC700675, Streptococcus pneumoniae S. Africa 6B-8, ATCC 700675",0.0625 µg/mL
same,MIC,"[4]; Streptococcus pneumoniae, ATCC700676, Streptococcus pneumonia England ST14-9 ATCC 700676, ERY-R",0.125 µg/mL
same,MIC,"[4]; Streptococcus pneumoniae, ATCC 700677 / PRSP, Streptococcus pneumoniae CSR 14-10, ATCC 700677, PRSP",0.0625 µg/mL
same,MIC,"[4]; Streptococcus pneumoniae, PRSP, Streptococcus pneumoniae TM532",0.0625 µg/mL
same,MIC,"[4]; Streptococcus salivarius, ATCC13419, Streptococcus salivarius ATCC 13419",0.25 µg/mL
same,MIC,"[4]; Streptococcus sanguinis, ATCC10556, Streptococcus sanguinis ATCC 10556",0.25 µg/mL
